Assay results published in publication PMC6747087, “Characterization of Tachyplesin Peptides and Their Cyclized Analogues to Improve Antimicrobial and Anticancer Properties” (International Journal of Molecular Sciences, 2019).
Converted amounts (≈) assume the structure as drawn. Residues, ends and D or L forms follow the SMILES beside them.

How the values were obtained:
in vitro = settings: 25% (v/v) human serum, 24 h, 37 °C, 50 µM peptide, RP-HPLC peak area vs time zero
Method: The serum stability assay was carried out as previously described with some modifications. Briefly, tachyplesin variants were incubated in 25% (v/v) human serum diluted in phosphate-buffered saline (PBS) at a final concentration of 50 µM at 37 °C. Triplicates were collected at time 0 h and 24 h and the serum proteins were precipitated with acetonitrile (1:3 ratio) supplemented with 3% TFA. Samples were kept on ice for 10 min before centrifugation at 17,000× g for 10 min at 4 °C. The peptide containing supernatant of each sample was harvested and quantified using RP-HPLC (10 to 45% solvent B, 1%/min gradient). The percentage of peptide stability in human serum was calculated by comparing the area of the peptide peak obtained at 24 h to that at time 0 h. A linear peptide containing 18 amino acid residues ([…]) was included as a control susceptible to proteolytic degradation.

[1] = tested on: human red blood cells (RBCs); assay: Hemolytic activity against human red blood cells; assay type: cell-based; settings: human RBCs 0.25% (v/v), 1 h, 37 °C; mean ± SEM
Method: A small amount of blood was collected from three healthy human donors. The blood was immediately diluted in PBS and centrifuged 4–5 times for 1 min at 4000 rpm to wash and separate the human red blood cells (RBCs). RBCs suspension (0.25% (v/v) in PBS) was incubated with peptides with two-fold serial dilutions of the peptide (highest concentration tested was 128 µM, and the lowest was 0.25 µM) in a 96-well plate. Melittin, a membrane disruptive peptide, was used as control. The plates were incubated for 1 h at 37 °C. After incubation, the plates were centrifuged for 5 min at 1000 rpm to pellet any non-lysed RBCs. A total of 100 µL of the supernatant were transferred to a new 96-well plate. The hemoglobin released into the supernatant from lysed cells was measured by absorbance at 415 nm using the Tecan infinite M1000Pro multiplate reader (Männedorf, Switzerland).

E. coli ATCC 25922 = assay: MIC against planktonic bacteria (resazurin); assay type: cell-based, Escherichia coli; settings: Mueller Hinton Broth
Method: (§1) S. aureus ATCC 25923, S. aureus ATCC 6538, E. coli ATCC 25922, and E. coli DC2 CGSC 7139 were grown in Mueller Hinton Broth (Sigma Aldrich, St. Luis, USA). Bacterial cultures in the exponential growth phase were diluted to an OD600nm of 0.001 and seeded into 96-well plates. Peptides at different concentrations, starting at 64 µM and with two-fold serial dilutions (i.e., 64, 32, 16, 8, 4, 2, 1, 0.5, 0.25, 0.125 and 0.0625 µM), were incubated with cells; 0.05% (v/v) resazurin was added to the cultures the next day and the conversion to resorufin was measured after 1 h of incubation at 37 °C using a 565 nm excitation and 584 nm emission wavelength, as above.

E. coli DC2 CGSC 7139 = assay: MIC against planktonic bacteria (resazurin); assay type: cell-based, Escherichia coli; settings: Mueller Hinton Broth
Method: as §1

S. aureus ATCC 25923 = assay: MIC against planktonic bacteria (resazurin); assay type: cell-based, Staphylococcus aureus; settings: Mueller Hinton Broth
Method: as §1

S. aureus ATCC 6538 = assay: MIC against planktonic bacteria (resazurin); assay type: cell-based, Staphylococcus aureus; settings: Mueller Hinton Broth
Method: as §1

[2] = Activity against preformed biofilm (resazurin metabolic activity); assay type: cell-based, Staphylococcus aureus; settings: 24 h preformed biofilm, 4 h peptide treatment; read-out: CC50 (reduction of 50% of the metabolically active cell population)
Method: S. aureus ATCC 6538 (1 × 10^6 cfu/mL) was cultured in Tryptic Soy Broth, containing 0.25% (w/v) glucose and incubated in 96-well microtiter flat-bottomed polystyrene plates for 24 h at 37 °C. Preformed biofilms were then washed with Mueller Hinton Broth to remove non-adherent cells. Two-fold serial dilutions of each peptide (highest concentration tested was 32 µM and lowest was 0.25 µM) were added to the biofilms for 4 h. Untreated 24 h preformed biofilms were used as a control. The metabolic activity of biofilm-embedded cells was determined using a resazurin reduction fluorometric assay as previously described.

[3] = Cytotoxicity assay (resazurin); assay type: cell-based, Human; settings: ± SEM, n ≥ 3
Method: Cells were grown in cell culture flasks and incubated in a humidified atmosphere (5% CO2, 37 °C). The cancer cell lines HeLa and the control cell line HaCaT were grown in a DMEM medium supplemented with 1% (v/v) penicillin/streptomycin and 10% (v/v) fetal bovine serum (FBS). The cancer cell lines MM96L, HT144 and WM164 were grown in a RPMI medium supplemented with 1% (v/v) penicillin/[…], 10% (v/v) FBS, 20 mM L-glutamine, and 10 mM sodium pyruvate. Cell cultures were maintained by dilution upon reaching confluence, each 48–72 h. More information about the cell lines is available in Tables S2 and S3.
Cells were seeded into 96-well flat-bottom plates at 5 × 10^3 cells/well and incubated overnight. The medium was removed and replaced with 90 µL serum-free medium, 10 µL of 10x concentrated peptide solutions in PBS were added. PBS was added as blank and 0.1% (v/v) Triton X-100 was used to establish 100% of cell death. After 2 h incubation at 37 °C, 10 µL of filtered 0.05% (w/v) resazurin solution was added to each well [70]. Resazurin is converted to the pink and fluorescent compound resorufin by viable cells. After incubation overnight, the fluorescence intensity (λex = 565 nm and λem = 584 nm) was measured with the Tecan infinite M1000Pro multiplate reader (Männedorf, Switzerland).

[4] = HT144, 2 h peptide in serum-free medium
[5] = HaCaT non-cancerous control, 2 h peptide in serum-free medium
[6] = HeLa, 2 h peptide in serum-free medium
[7] = MM96L, 2 h peptide in serum-free medium
[8] = WM164, 2 h peptide in serum-free medium

Structure (SMILES)	peptide remaining in human serum (in vitro)	HC50 (concentration required to induce 50% lysis in RBCs) [1] [µM]	MIC (E. coli ATCC 25922) [µM]	MIC (E. coli DC2 CGSC 7139) [µM]	MIC (S. aureus ATCC 25923) [µM]	MIC (S. aureus ATCC 6538) [µM]	Concentration reducing biofilm metabolic activity by 50% [2] [µM]	CC50 [3, 4] [nM]	CC50 [3, 5] [nM]	CC50 [3, 6] [nM]	CC50 [3, 7] [nM]	CC50 [3, 8] [nM]
CC[C@H](C)[C@H](NC(=O)[C@H](CC(C)C)NC(=O)[C@H](CCC(N)=O)NC(=O)CNC(=O)[C@H](CO)NC(=O)CNC(=O)CNC(=O)CNC(=O)CNC(=O)[C@@H](N)CCCCN)C(=O)N[C@@H](CC(=O)O)C(=O)N[C@@H](CO)C(=O)N[C@@H](CCSC)C(=O)N[C@@H](C)C(=O)N[C@@H](CC(N)=O)C(=O)N[C@@H](CO)C(=O)N[C@@H](Cc1ccccc1)C(=O)N[C@H](C(=O)O)C(C)C [KGGGGSGQLIDSMANSFV, reference compound] (H-KGGGGSGQLIDSMANSFV-OH)	fully degraded											
CC[C@H](C)[C@@H]1NC(=O)CNC(=O)[C@H](CCCNC(=N)N)NC(=O)[C@H](Cc2ccc(O)cc2)NC(=O)[C@@H]2CSSC[C@H](NC1=O)C(=O)N[C@@H](Cc1ccc(O)cc1)C(=O)N[C@@H](CCCNC(=N)N)C(=O)N[C@@H](CCCCN)C(=O)N[C@H]1CSSC[C@H](NC(=O)[C@H](Cc3c[nH]c4ccccc34)NC(=O)[C@H](CCCNC(=N)N)NC(=O)CNC(=O)[C@H](CCCNC(=N)N)NC1=O)C(=O)N[C@@H](Cc1ccccc1)C(=O)N[C@@H](CCCNC(=N)N)C(=O)N[C@@H](C(C)C)C(=O)N2 [cTII, Cyclic Tachyplesin II] (HELM PEPTIDE1{C.F.R.V.C.Y.R.G.I.C.Y.R.K.C.R.G.R.W}$PEPTIDE1,PEPTIDE1,1:R3-14:R3|PEPTIDE1,PEPTIDE1,5:R3-10:R3|PEPTIDE1,PEPTIDE1,1:R1-18:R2$$$V2.0)		64.1 ± 9.4	1 to 2	4 to 8	2 to 8	8 (≈ 18.4 µg/mL)	19.4 ± 1.5	800 ± 40	2400 ± 300	7200 ± 400	1100 ± 100	2400 ± 300
CC[C@H](C)[C@@H]1NC(=O)CNC(=O)[C@H](CCCNC(=N)N)NC(=O)[C@H](Cc2ccc(O)cc2)NC(=O)[C@@H]2CSSC[C@H](NC1=O)C(=O)N[C@@H](Cc1ccc(O)cc1)C(=O)N[C@@H](CCCNC(=N)N)C(=O)N[C@@H](CCCCN)C(=O)N[C@H]1CSSC[C@H](NC(=O)[C@H](Cc3c[nH]c4ccccc34)NC(=O)[C@H](CCCCN)NC(=O)CNC(=O)[C@H](CCCNC(=N)N)NC1=O)C(=O)N[C@@H](Cc1ccccc1)C(=O)N[C@@H](CCCNC(=N)N)C(=O)N[C@@H](C(C)C)C(=O)N2 [cTIII, Cyclic Tachyplesin III] (HELM PEPTIDE1{C.F.R.V.C.Y.R.G.I.C.Y.R.K.C.R.G.K.W}$PEPTIDE1,PEPTIDE1,1:R3-14:R3|PEPTIDE1,PEPTIDE1,5:R3-10:R3|PEPTIDE1,PEPTIDE1,1:R1-18:R2$$$V2.0)		>128	1 to 2	4 to 8	2 to 8	8 (≈ 18.2 µg/mL)	18 ± 1.4	900 ± 30	7500 ± 300	9300 ± 400	1700 ± 100	1300 ± 100
CC[C@H](C)[C@@H]1NC(=O)CNC(=O)[C@H](CCCNC(=N)N)NC(=O)[C@H](Cc2ccc(O)cc2)NC(=O)[C@@H]2CSSC[C@H](NC1=O)C(=O)N[C@@H](Cc1ccc(O)cc1)C(=O)N[C@@H](CCCNC(=N)N)C(=O)N[C@@H](CCCNC(=N)N)C(=O)N[C@H]1CSSC[C@H](NC(=O)[C@H](Cc3c[nH]c4ccccc34)NC(=O)[C@H](CCCCN)NC(=O)CNC(=O)[C@H](CCCNC(=N)N)NC1=O)C(=O)N[C@@H](Cc1ccccc1)C(=O)N[C@@H](CCCNC(=N)N)C(=O)N[C@@H](C(C)C)C(=O)N2 [cTI, Cyclic Tachyplesin I] (HELM PEPTIDE1{C.F.R.V.C.Y.R.G.I.C.Y.R.R.C.R.G.K.W}$PEPTIDE1,PEPTIDE1,1:R3-14:R3|PEPTIDE1,PEPTIDE1,5:R3-10:R3|PEPTIDE1,PEPTIDE1,1:R1-18:R2$$$V2.0)	did not degrade	106.9 ± 21.0	1 (≈ 2.3 µg/mL)	4 (≈ 9.22 µg/mL)	2 to 8	8 (≈ 18.4 µg/mL)	17.8 ± 3.6	1400 ± 100	7900 ± 500	6700 ± 600	1300 ± 100	2700 ± 100
